In brackets after ≈: the same amount, converted by molar mass. Activity calls are given as the source filed them. No cut-off for these calls is given here.
How the values were obtained:
[1] = Selectivity ratio of MIC for antibacterial activity against Salmonella typhimurium 7731 to MIC for antibacterial activity against Escherichia coli K98; type: functional
[2] = Toxicity in ICR mouse assessed as change in serum TBIL level at 10 to 40 mg/kg, ip treated for 3 days consecutively; type: organism-based; details: in vivo, 72 h, dose 10-40 mg/kg, time 3 day
[3] = Toxicity in ICR mouse assessed as change in serum CREA level at 10 to 40 mg/kg, ip treated for 3 days consecutively; type: organism-based; details: in vivo, 72 h, dose 10-40 mg/kg, time 3 day
[4] = system: Bacteria; experiment: Antibacterial activity against bacterial cells at pH 2; type: functional
[5] = Cytotoxicity against mouse RAW264.7 cells assessed as cell viability at 128 uM incubated for 4 hrs by MTT assay relative to control; type: toxicity, cell-based; details: read-out: Activity
[6] = Selectivity ratio of MIC for antibacterial activity against Escherichia coli 078 to MIC for antibacterial activity against Escherichia coli K101; type: functional
[7] = system: Staphylococcus aureus; experiment: Antibacterial activity against methicillin-resistant Staphylococcus aureus 43300 incubated for 12 to 18 hrs by microbroth dilution method; type: functional; details: time 12-18 hrs
[8] = Selectivity ratio of MIC for antibacterial activity against Lactobacillus plantarum 8014 to MIC for antibacterial activity against Escherichia coli K90; type: functional
[9] = system: Bacteria; experiment: Antibacterial activity against bacterial cells at pH 4 to 10; type: functional
[10] = Toxicity in ICR mouse assessed as hunchback posture at 40 mg/kg, ip measured for 30 to 4 hrs; type: organism-based; details: in vivo, time 30-4 hrs
[11] = system: Bacteria; experiment: Antibacterial activity against bacterial cells at 1 to 128 uM in presence of CaCl; type: functional, organism-based; details: dose 1-128 µM
[12] = system: Salmonella typhimurium; experiment: Antibacterial activity against Salmonella typhimurium 7731 incubated for 12 to 18 hrs by microbroth dilution method; type: functional, Salmonella enterica subsp. enterica serovar Typhimurium; details: Salmonella enterica, time 12-18 hrs
[13] = Toxicity in ICR mouse assessed as change in spleen index at 10 to 40 mg/kg, ip treated for 3 days consecutively; type: organism-based; details: in vivo, 72 h, dose 10-40 mg/kg, time 3 day
[14] = system: Escherichia coli; experiment: Antibacterial activity against Escherichia coli K88 infected in ICR mouse model of peritoneal sepsis assessed as reduction in granulocyte infiltration in spleen at 20 mg/kg, ip measured after 10 hrs by H and E staining based analysis; type: functional, organism-based
[15] = Selectivity ratio of MIC for antibacterial activity against Escherichia coli 1515 to MIC for antibacterial activity against Escherichia coli K100; type: functional
[16] = system: Escherichia coli; experiment: Antibacterial activity against Escherichia coli K88 infected in ICR mouse model of peritoneal sepsis assessed as bacterial load reduction in kidney at 20 mg/kg, ip measured after 10 hrs; type: functional, organism-based
[17] = Hydrophobicity of compound; type: physicochemical
[18] = system: Escherichia coli; experiment: Antibacterial activity against Escherichia coli K88 infected in ICR mouse model of peritoneal sepsis assessed as reduction in necrosis in renal tubular epithelial cells at 20 mg/kg, ip measured after 10 hrs by H and E staining based analysis; type: functional, organism-based
[19] = system: Escherichia coli; experiment: Inhibition of DNA migration in Escherichia coli K88 at 16 uM incubated for 40 mins by agarose gel electrophoresis.; type: functional, organism-based
[20] = Selectivity ratio of MIC for antibacterial activity against Lactobacillus rhamnosus 7469 to MIC for antibacterial activity against Escherichia coli K89; type: functional
[21] = system: Escherichia coli; experiment: Antibacterial activity against Escherichia coli K88 infected in ICR mouse model of peritoneal sepsis assessed as reduction in alveolar wall thickening in lungs at 20 mg/kg, ip measured after 10 hrs by H and E staining based analysis; type: functional, organism-based
[22] = system: Escherichia coli; experiment: Antibacterial activity against Escherichia coli 1515 incubated for 12 to 18 hrs by microbroth dilution method; type: functional; details: time 12-18 hrs
[23] = system: Escherichia coli; experiment: Disruption of membrane integrity in Escherichia coli K88 at 2 uM by PI staining based flow cytometry (reference value: 0.1 %); type: functional
[24] = system: Escherichia coli; experiment: Induction of morphological changes in Escherichia coli K88 assessed as membrane contraction at 2 uM incubated for 1 hr by SEM analysis; type: functional, organism-based
[25] = system: Escherichia coli; experiment: Induction of cytoplasmic membrane depolarization in Escherichia coli K88 at 2 uM by DiSC3-5 dye based analysis; type: functional, organism-based
[26] = system: Bacteria; experiment: Antibacterial activity against bacterial cells at 1 to 64 uM incubated for 4 hrs in presence of 50 percent serum; type: functional, organism-based; details: dose 1-64 µM
[27] = system: Staphylococcus aureus; experiment: Antibacterial activity against Staphylococcus aureus 25923 incubated for 12 to 18 hrs by microbroth dilution method; type: functional; details: time 12-18 hrs
[28] = system: Escherichia coli; experiment: Antibacterial activity against Escherichia coli K88 infected in ICR mouse model of peritoneal sepsis assessed as bacterial load reduction in liver at 20 mg/kg, ip measured after 10 hrs; type: functional, organism-based
[29] = system: Lactococcus lactis; experiment: Antibacterial activity against Lactococcus lactis NZ9000 incubated for 12 to 18 hrs by microbroth dilution method; type: functional; details: time 12-18 hrs
[30] = system: Escherichia coli; experiment: Induction of outer membrane permeability in Escherichia coli K88 assessed as NPN leakage; type: functional, organism-based; details: dose 1-32 µM
[31] = system: Escherichia coli; experiment: Antibacterial activity against Escherichia coli K99 incubated for 12 to 18 hrs by microbroth dilution method; type: functional; details: time 12-18 hrs
[32] = system: Escherichia coli; experiment: Antibacterial activity against Escherichia coli K88 infected in ICR mouse model of peritoneal sepsis assessed as reduction in blood IL-1beta level at 20 mg/kg, ip measured after 10 hrs; type: functional, organism-based
[33] = system: Lactiplantibacillus plantarum; experiment: Antibacterial activity against Lactobacillus plantarum 8014 incubated for 12 to 18 hrs by microbroth dilution method; type: functional; details: time 12-18 hrs
[34] = Toxicity in ICR mouse assessed as body weight change at 10 to 40 mg/kg, ip treated for 3 days consecutively; type: organism-based; details: in vivo, 72 h, dose 10-40 mg/kg, time 3 day
[35] = system: Escherichia coli; experiment: Induction of outer membrane permeability in Escherichia coli K88 assessed as NPN leakage at 2 uM relative to control; type: functional
[36] = system: Escherichia coli; experiment: Antibacterial activity against Escherichia coli K88 infected in ICR mouse model of peritoneal sepsis assessed as reduction in vacuolar degeneration of hepatocytes at 20 mg/kg, ip measured after 10 hrs by H and E staining based analysis; type: functional, organism-based
[37] = Selectivity ratio of MIC for antibacterial activity against Escherichia coli K99 to MIC for antibacterial activity against Escherichia coli K102; type: functional
[38] = system: Escherichia coli; experiment: Induction of morphological changes in Escherichia coli K88 assessed as cytoplasmic leakage at 2 uM incubated for 1 hr by TEM analysis; type: functional, organism-based
[39] = system: Escherichia coli; experiment: Antibacterial activity against Escherichia coli K88 incubated for 12 to 18 hrs by microbroth dilution method; type: functional; details: time 12-18 hrs

In the case of `CC[C@@H](C)[C@H](NC(=O)CNC(=O)[C@@H]1CCCN1C(=O)[C@H](CCCCN)NC(=O)[C@H](Cc1c[nH]c2ccccc12)NC(=O)[C@@H](NC(=O)[C@H](CCCCN)NC(=O)[C@H](CCCCN)NC(=O)[C@H](Cc1c[nH]c2ccccc12)NC(=O)[C@H](Cc1ccc(O)cc1)NC(=O)[C@H](CCCCN)NC(=O)[C@@H](NC(=O)[C@H](CC(C)C)NC(=O)[C@H](CC(N)=O)NC(=O)CNC(=O)[C@@H](N)CO)[C@@H](C)O)[C@@H](C)CC)C(=O)N[C@@H](CCCCN)C(=O)N[C@@H](CCCCN)C(=O)N[C@@H](Cc1c[nH]c2ccccc12)C(=O)N[C@H](C(=O)N[C@@H](CCCCN)C(=O)O)[C@H](C)CC`, the Ratio [1] is reported as greater than 2, the Activity [2] is reported as “Non-toxic” and the Activity [3] is reported as “Non-toxic”. For the same molecule, the MIC [4] was 4 µM (≈ 10.4 µg/mL), the viability at 4 h, 128 µM [5] was greater than 80% and the Ratio [6] was greater than 2. For the same molecule, the MIC [7] was 128 µM (≈ 333 µg/mL), the Ratio [8] was greater than 2 and the MIC [9] was 2 µM (≈ 5.21 µg/mL). For the same molecule, the Activity [10] was “Toxic”, the Activity [11] was “inactive” and the MIC [12] was 4 µM (≈ 10.4 µg/mL). The Activity [13] was “Non-toxic”, the Activity [14] was “Active” and the Ratio [15] was greater than 2. The Activity [16] was “Active; Activity Comparable To Colistin Treatment”, the Activity [17] was 0.391 and the Activity [18] was “Active”. For the same molecule, the inhibition [19] was “Active”, the Ratio [20] was greater than 2 and the Activity [21] was “Active”. The MIC [22] was 4 µM (≈ 10.4 µg/mL), the Activity [23] was 96.8% and the Activity [24] was “Active”. The Activity [25] was “Active”, the Activity [26] was “Active” and the MIC [27] was 128 µM (≈ 333 µg/mL). For the same molecule, the Activity [28] was “Active; Activity Comparable To Colistin Treatment”, the MIC [29] was 128 µM (≈ 333 µg/mL) and the Activity [30] was “Dose-dependent-effect”. The MIC [31] was 4 µM (≈ 10.4 µg/mL), the Activity [32] was “Active” and the MIC [33] was 128 µM (≈ 333 µg/mL). For the same molecule, the Activity [34] was “Non-toxic”, the Activity [35] was roughly 50% and the Activity [36] was “Active”. The Ratio [37] was greater than 2, the Activity [38] was “Active” and the MIC [39] was 2 µM (≈ 5.21 µg/mL).

From ChEMBL document CHEMBL6103615, “Thymidylate Kinase-Targeted Antimicrobial Peptides via Phage Display: A Novel Strategy against Gram-Negative Bacteria” (J Med Chem, 2025)
